Results from patent US20250205200A1, “5-METHOXY-N,N-[…][…] THE TREATMENT OF […]” (GH RESEARCH IRELAND LIMITED, priority 2022, published 2025).

Test system: Salmonella typhimurium (TA98, TA100, TA1535 and TA1537)
Experiment: Bacterial mutation test, Salmonella typhimurium
Type: cell-based
Conditions: up to 5000 μg/plate; absence and presence of S-9
Procedure: These conditions included treatments at concentrations up to 5000 μg/plate (the maximum recommended concentration according to current regulatory guidelines), in the absence and in the presence of a rat liver metabolic activation system (S-9).

COc1ccc2[nH]cc(CCN(C)C)c2c1 [5-MeO-DMT]
Induction of mutation: did not induce mutation
